Experimental data reported in the NIST ThermoML archive (doi:10.1021/acs.jced.8b00132).
Several values for one entry are separate records, joined by “and”; a condition that tells them apart may be missing. Equal entries are not always repeated.

Details: Gas

O=C(C(F)(F)C(F)(F)F)C(F)(C(F)(F)F)C(F)(F)F [dodecafluoro-2-methylpentan-3-one]
Details	thermal conductivity
453.04 K, 2349 kPa, transient hot wire	0.03749 W/m/K
453.05 K, 2432 kPa, transient hot wire	0.03632 W/m/K
453.06 K, 2213 kPa, transient hot wire	0.03787 W/m/K
453.06 K, 2283 kPa, transient hot wire	0.039 W/m/K
453.07 K, 2432 kPa, transient hot wire	0.03565 W/m/K
453.08 K, 2213 kPa, transient hot wire	0.03857 W/m/K and 0.03787 W/m/K
453.09 K, 2350 kPa, transient hot wire	0.03794 W/m/K and 0.03775 W/m/K
453.11 K, 2432 kPa, transient hot wire	0.03612 W/m/K and 0.03616 W/m/K
453.11 K, 2570 kPa, transient hot wire	0.03577 W/m/K and 0.03583 W/m/K
453.11 K, 2808 kPa, transient hot wire	0.03624 W/m/K and 0.03614 W/m/K
453.14 K, 2350 kPa, transient hot wire	0.03841 W/m/K and 0.03851 W/m/K
453.15 K, 2570 kPa, transient hot wire	0.0359 W/m/K
453.16 K, 2433 kPa, transient hot wire	0.03632 W/m/K
453.17 K, 2136 kPa, transient hot wire	0.03394 W/m/K and 0.03367 W/m/K
453.17 K, 2432 kPa, transient hot wire	0.03641 W/m/K
453.17 K, 2808 kPa, transient hot wire	0.03589 W/m/K
453.19 K, 5686 kPa, transient hot wire	0.04064 W/m/K
453.21 K, 2136 kPa, transient hot wire	0.03328 W/m/K
453.21 K, 2570 kPa, transient hot wire	0.03619 W/m/K
453.21 K, 3282 kPa, transient hot wire	0.03735 W/m/K
453.21 K, 3283 kPa, transient hot wire	0.03693 W/m/K
453.22 K, 2136 kPa, transient hot wire	0.03435 W/m/K
453.22 K, 2432 kPa, transient hot wire	0.03662 W/m/K
453.22 K, 2570 kPa, transient hot wire	0.03586 W/m/K
453.22 K, 2810 kPa, transient hot wire	0.03611 W/m/K
453.23 K, 2433 kPa, transient hot wire	0.03706 W/m/K
453.23 K, 2810 kPa, transient hot wire	0.03619 W/m/K
453.23 K, 8482 kPa, transient hot wire	0.04362 W/m/K
453.24 K, 8482 kPa, transient hot wire	0.04354 W/m/K
453.26 K, 5649 kPa, transient hot wire	0.04056 W/m/K
453.27 K, 3283 kPa, transient hot wire	0.03745 W/m/K
453.27 K, 5649 kPa, transient hot wire	0.04057 W/m/K
453.28 K, 2570 kPa, transient hot wire	0.03618 W/m/K
453.29 K, 2570 kPa, transient hot wire	0.03626 W/m/K
453.29 K, 2810 kPa, transient hot wire	0.03632 W/m/K
453.29 K, 4172 kPa, transient hot wire	0.03871 W/m/K
453.29 K, 4174 kPa, transient hot wire	0.03872 W/m/K
453.3 K, 2810 kPa, transient hot wire	0.03661 W/m/K
453.33 K, 2570 kPa, transient hot wire	0.03666 W/m/K
453.33 K, 3284 kPa, transient hot wire	0.03713 W/m/K
453.34 K, 1996 kPa, transient hot wire	0.03032 W/m/K
453.34 K, 3284 kPa, transient hot wire	0.03709 W/m/K
453.34 K, 5678 kPa, transient hot wire	0.04058 W/m/K
453.34 K, 5680 kPa, transient hot wire	0.0407 W/m/K
453.36 K, 1997 kPa, transient hot wire	0.02939 W/m/K
453.36 K, 2570 kPa, transient hot wire	0.03639 W/m/K
453.36 K, 2811 kPa, transient hot wire	0.03631 W/m/K
453.37 K, 8482 kPa, transient hot wire	0.04354 W/m/K
453.38 K, 8480 kPa, transient hot wire	0.0435 W/m/K
453.39 K, 4177 kPa, transient hot wire	0.03877 W/m/K
453.4 K, 3286 kPa, transient hot wire	0.03741 W/m/K
453.4 K, 5646 kPa, transient hot wire	0.04064 W/m/K
453.4 K, 13124 kPa, transient hot wire	0.04703 W/m/K and 0.04697 W/m/K
453.41 K, 3285 kPa, transient hot wire	0.03741 W/m/K
453.41 K, 5645 kPa, transient hot wire	0.04067 W/m/K
453.42 K, 1998 kPa, transient hot wire	0.02991 W/m/K and 0.02978 W/m/K
453.46 K, 20262 kPa, transient hot wire	0.05129 W/m/K
453.48 K, 3286 kPa, transient hot wire	0.03719 W/m/K
453.48 K, 5676 kPa, transient hot wire	0.04078 W/m/K
453.48 K, 20262 kPa, transient hot wire	0.05134 W/m/K
453.49 K, 4182 kPa, transient hot wire	0.03866 W/m/K
453.49 K, 5674 kPa, transient hot wire	0.04064 W/m/K
453.49 K, 8479 kPa, transient hot wire	0.04353 W/m/K
453.5 K, 4184 kPa, transient hot wire	0.03869 W/m/K
453.5 K, 31253 kPa, transient hot wire	0.05652 W/m/K
453.51 K, 8480 kPa, transient hot wire	0.04354 W/m/K
453.51 K, 31255 kPa, transient hot wire	0.05656 W/m/K
453.52 K, 1999 kPa, transient hot wire	0.03046 W/m/K
453.52 K, 13123 kPa, transient hot wire	0.04703 W/m/K
453.53 K, 13124 kPa, transient hot wire	0.04696 W/m/K
453.54 K, 5643 kPa, transient hot wire	0.04051 W/m/K
453.55 K, 47061 kPa, transient hot wire	0.06271 W/m/K
453.56 K, 1718 kPa, transient hot wire	0.02564 W/m/K
453.58 K, 1718 kPa, transient hot wire	0.02573 W/m/K
453.6 K, 4188 kPa, transient hot wire	0.03889 W/m/K
453.6 K, 46969 kPa, transient hot wire	0.06282 W/m/K
453.6 K, 46979 kPa, transient hot wire	0.06275 W/m/K
453.62 K, 4187 kPa, transient hot wire	0.03872 W/m/K
453.62 K, 20261 kPa, transient hot wire	0.05127 W/m/K
453.62 K, 20264 kPa, transient hot wire	0.05121 W/m/K
453.63 K, 5670 kPa, transient hot wire	0.04057 W/m/K
453.63 K, 5671 kPa, transient hot wire	0.04054 W/m/K
453.63 K, 31252 kPa, transient hot wire	0.05654 W/m/K
453.64 K, 526 kPa, hot wire	0.02431 W/m/K
453.64 K, 8480 kPa, transient hot wire	0.04343 W/m/K
453.64 K, 31251 kPa, transient hot wire	0.05647 W/m/K
453.65 K, 526 kPa, hot wire	0.02432 W/m/K
453.66 K, 8479 kPa, transient hot wire	0.04348 W/m/K
453.66 K, 47049 kPa, transient hot wire	0.06259 W/m/K
453.67 K, 1718 kPa, transient hot wire	0.02603 W/m/K
453.67 K, 47042 kPa, transient hot wire	0.06272 W/m/K
453.68 K, 1718 kPa, transient hot wire	0.02589 W/m/K
453.68 K, 13120 kPa, transient hot wire	0.04693 W/m/K
453.68 K, 13121 kPa, transient hot wire	0.04701 W/m/K
453.69 K, 5641 kPa, transient hot wire	0.04062 W/m/K
453.7 K, 353 kPa, hot wire	0.02345 W/m/K
453.7 K, 5640 kPa, transient hot wire	0.04066 W/m/K
453.72 K, 350 kPa, hot wire	0.02302 W/m/K
453.73 K, 171 kPa, hot wire	0.02261 W/m/K
453.73 K, 174 kPa, hot wire	0.0228 W/m/K
453.73 K, 4189 kPa, transient hot wire	0.03831 W/m/K
453.73 K, 4192 kPa, transient hot wire	0.03871 W/m/K
453.73 K, 46962 kPa, transient hot wire	0.06254 W/m/K
453.73 K, 46969 kPa, transient hot wire	0.06263 W/m/K
453.74 K, 525 kPa, hot wire	0.0244 W/m/K
453.75 K, 524 kPa, hot wire	0.02432 W/m/K
453.75 K, 1718 kPa, transient hot wire	0.02601 W/m/K
453.76 K, 1718 kPa, transient hot wire	0.02605 W/m/K
453.77 K, 20261 kPa, transient hot wire	0.05121 W/m/K
453.77 K, 20262 kPa, transient hot wire	0.0513 W/m/K
453.78 K, 48 kPa, hot wire	0.02241 W/m/K
453.78 K, 31246 kPa, transient hot wire	0.0566 W/m/K
453.79 K, 31248 kPa, transient hot wire	0.05653 W/m/K
453.8 K, 48 kPa, hot wire	0.02228 W/m/K
453.8 K, 344 kPa, hot wire	0.0233 W/m/K
453.8 K, 347 kPa, hot wire	0.02342 W/m/K
453.8 K, 5666 kPa, transient hot wire	0.0408 W/m/K
453.8 K, 8477 kPa, transient hot wire	0.04345 W/m/K
453.81 K, 1718 kPa, transient hot wire	0.02631 W/m/K
453.81 K, 47035 kPa, transient hot wire	0.06264 W/m/K
453.82 K, 8478 kPa, transient hot wire	0.0434 W/m/K
453.84 K, 171 kPa, hot wire	0.02268 W/m/K
453.84 K, 524 kPa, hot wire	0.02443 W/m/K
453.84 K, 13123 kPa, transient hot wire	0.04696 W/m/K
453.85 K, 170 kPa, hot wire	0.02247 W/m/K
453.85 K, 13121 kPa, transient hot wire	0.04695 W/m/K
453.86 K, 523 kPa, hot wire	0.02411 W/m/K
453.87 K, 5638 kPa, transient hot wire	0.0407 W/m/K
453.87 K, 46957 kPa, transient hot wire	0.06253 W/m/K
453.88 K, 47 kPa, hot wire	0.02246 W/m/K and 0.02258 W/m/K
453.88 K, 1718 kPa, transient hot wire	0.02616 W/m/K and 0.02618 W/m/K
453.88 K, 46954 kPa, transient hot wire	0.06253 W/m/K
453.9 K, 340 kPa, hot wire	0.02338 W/m/K
453.9 K, 342 kPa, hot wire	0.02344 W/m/K
453.91 K, 1365 kPa, transient hot wire	0.02445 W/m/K
453.92 K, 1364 kPa, transient hot wire	0.02439 W/m/K
453.93 K, 20259 kPa, transient hot wire	0.05122 W/m/K
453.94 K, 524 kPa, hot wire	0.02452 W/m/K
453.94 K, 1718 kPa, transient hot wire	0.02654 W/m/K
453.94 K, 1719 kPa, transient hot wire	0.02663 W/m/K
453.94 K, 20259 kPa, transient hot wire	0.05128 W/m/K
453.94 K, 31248 kPa, transient hot wire	0.05655 W/m/K
453.95 K, 170 kPa, hot wire	0.0227 W/m/K and 0.02256 W/m/K
453.95 K, 524 kPa, hot wire	0.02446 W/m/K
453.95 K, 31244 kPa, transient hot wire	0.05645 W/m/K
453.95 K, 47020 kPa, transient hot wire	0.06258 W/m/K
453.96 K, 47012 kPa, transient hot wire	0.06261 W/m/K
453.98 K, 48 kPa, hot wire	0.02243 W/m/K and 0.02253 W/m/K
454.01 K, 338 kPa, hot wire	0.02346 W/m/K
454.02 K, 339 kPa, hot wire	0.02333 W/m/K
454.02 K, 13121 kPa, transient hot wire	0.047 W/m/K and 0.04696 W/m/K
454.02 K, 46938 kPa, transient hot wire	0.06262 W/m/K
454.02 K, 46945 kPa, transient hot wire	0.06264 W/m/K
454.06 K, 523 kPa, hot wire	0.02445 W/m/K
454.07 K, 170 kPa, hot wire	0.02273 W/m/K
454.07 K, 522 kPa, hot wire	0.02433 W/m/K
454.07 K, 1364 kPa, transient hot wire	0.02449 W/m/K
454.07 K, 1365 kPa, transient hot wire	0.02446 W/m/K
454.07 K, 1718 kPa, transient hot wire	0.02688 W/m/K and 0.02682 W/m/K
454.08 K, 169 kPa, hot wire	0.02266 W/m/K
454.09 K, 48 kPa, hot wire	0.02257 W/m/K
454.1 K, 48 kPa, hot wire	0.0225 W/m/K
454.1 K, 20256 kPa, transient hot wire	0.0513 W/m/K and 0.05118 W/m/K
454.1 K, 31241 kPa, transient hot wire	0.05644 W/m/K
454.1 K, 31244 kPa, transient hot wire	0.05644 W/m/K
454.11 K, 47006 kPa, transient hot wire	0.06269 W/m/K
454.13 K, 337 kPa, hot wire	0.02342 W/m/K
454.13 K, 338 kPa, hot wire	0.0234 W/m/K
